Here are results for two compounds from US5880146A, “Inhibition of IL-12-induced IFN-γ synthesis by specific bis-phenol compounds as a method of immune modulation” (Fuji ImmunoPharmaceuticals Corporation, priority 1995, dated 1999).

In experiment [1] the test system is T cell response of human PBMC to allogenic stimulation by Namalwa cells. Nature of the experiment: Mixed Lymphocyte Reaction (proliferation and IFN-γ secretion). Type of experiment: cell-based. The conditions noted are these: 6 days; FIGS. 1-3. As for the experimental part: This reaction measures the T cell response to allogenic stimulation by a mismatch of class II histocompatability antigens. This is triggered through the T cell receptor and activates the T cell to secrete and proliferate in response to endogenous IL-2. IFN-γ is also made in response to this stimulation and accumulates in the culture medium. Compounds are tested for their ability to block the proliferation and response to antigenic stimulation as well as their ability to produce IFN-γ as follows. A human B cell ine expressing class II antigen, Namalwa (American Type Culture Collection), is incubated for 2 hr at 37° C. in RPMI-10 containing mitomycin C (50 μg/ml). These cells are washed four times by centrifugation and resuspension (10^6 cells/ml) in SF-RPMI medium and are added to the wells of 96-well plate (50 μl/well) as stimulators. Mitomycin treatment prevents these cells from proliferating in the assay. Fresh PBMC are prepared as described above in example 1, but are not activated with PHA. Instead they are resuspended at 10^6 cells/ml and 100 μl is added per well. Dilutions of test compounds are added (50 μl/well) to give a final volume of 200 μl and the plates are incubated for 6 days at 37° C. During the last 18 hr, ^3 H-thymidine (DuPont-NEN- 1 μCi/well) is added as a measure of cell proliferation, cultures are collected using a cell harvester (Packard), and scintillation fluid is added prior to counting in a Packard Top Count scintillation counter. A sample of medium is also collected for measurement of IFN-γ production prior to the addition of ^3 H-thymidine for use as a negative control.

The subject of experiment [2] is IL-12 induction of IFN-γ in PHA-activated human PBMC. Nature of the experiment: Screening assay for compounds which inhibit IL-12 induction of IFN-γ (ELISA). It is filed as cell-based. To be noted: 5 μg/ml, IL-2 25 U/ml + IL-12 0.5 ng/ml, 48 hr, single test, read-out: % INH of IFNγ. The protocol: Human peripheral blood monocytes (PBMC) were obtained from commercial sources as a leukophoresis from a healthy volunteer and were purified by centrifugation on a Ficoll-Hypaque (Pharmacia) gradient (1700 rpm for 20 min). The "buffy" coat containing the PBMC was diluted with serum-free culture medium (SF-RPMI) to a volume of 50 ml and collected by centrifugation at 1500 rpm for 5 min. Cells were resuspended in cell culture medium containing 10% fetal bovine serum (RPMI-10) and phytohemaglutinin (PHA - 10 μg/ml) at a density of 5×10^6 cells/ml and were cultured for 3 days at 37° C. in a humidified CO2 incubator. The PHA-activated cells were collected by centrifugation, washed three times with an equal volume of SF-RPMI and resuspended in fresh RPMI-10 (1×10^6 cells /ml). Aliquots (100 μl) were dispensed into the wells of multiple 96-well plates to give a final cell number of 10^5 per well. Test compounds, dissolved in dimethyl sulfoxide (DMSO) at 1 mg/ml, were first diluted in culture medium to an intermediate concentration of 20 μg/ml and then were added (50 μwell) to a specific well of the plate for each compound. Stimulation medium (50 μl/well) containing 10% serum, IL-2 and IL-12 was added to final concentrations of 25 U/ml and 0.5 ng/ml, respectively. Control wells receive no IL-2 or IL-12 (negative control) or received both interleukins but no test compound (positive control). The plates were incubated for 48 hr at 37° C. in a CO2 incubator at which time aliquots (20 μl) were removed for analysis of IFN-γ concentration by ELISA. A quantitative ELISA was developed by coating 96-well plates with an mouse monoclonal antibody against human IFN-γ, 1 μg/ml in phosphate buffered saline (PBS) (Pestka Biological Laboratories), overnight at 4° C. Unbound antibody was washed off by washing three times with PBS. Non-specific antibody binding was blocked with a solution of 1% bovine serum albumin (BSA) and 1% goat serum in PBS (150 μl/well) which was incubated for 2 hr at 37° C. After washing the blocked plates four times with PBS, test samples and dilutions of the IFN-γ standard are added in a final volume of 100 μl/well. Following an overnight incubation at 4° C., the plates are washed four times with PBS, and a polyclonal rabbit antiserum against human IFN-γ (1/10000 dilution--Petska Biological Laboratories) is added. After an additional incubation for 1 hr at 37° C. and four washes with PBS, a polyclonal donkey anti-rabbit detecting antibody, conjugated to horseradish peroxidase (1/700 dilution--Petska Biological Laboratories) is added for 1 hr at 37° C. The plates are then washed four times with PBS and 100 μl of K-blue substrate E(ILISA Technologies, Neogen Corp.) is added until the color in the wells containing the standard curve is sufficiently developed, at which time 100 μl of "Red-stop" solution (ELISA Technologies) is added. The absorbance of the solution within each well of the plate is then read at 650 nm using an ELISA plate reader (Dynatech MR7000). The amount of IFN-γ is calculated by comparing the optical density of the test sample with a standard curve derived from the dilutions of the control IFN-y. The amount of IFN-γ that is induced in the presence of both IL-2 and IL-12 generally ranges from 1200-2000 pg/ml while the amount produced in the absence of IL-12 is generally less than 50 pg/ml. Experimental data are shown in Table 2 which discloses a) the percent inhibition of IFNγ production, relative to a […], when the cells have been treated with a bis-compound at a final concentration of 5 μg/ml of the listed bis-compound (%INH or IFNγ) and b) the percent of cells which are viable after the treatment with 5 μg/ml of the various bis-compounds, determined by adding MTS to the media (% Viability). MTS is a chemical chromophore that is metabolized in the mitochondria of viable cells to produce a color which increases in intensity in proportion to the numbers of viable cells. […]
On the technique in general: ELISA stands for enzyme-linked immunosorbent assay.

For `CCCCCCCC(c1cc(C)cc(C)c1O)c1cc(C)cc(C)c1O` [Compound 51852], in experiment [1], the “inhibition of IFN-γ secretion versus cell proliferation (in words)” value is “more potent inhibitors of secretion at concentrations that do not effect cell proliferation”. Moreover, in experiment [2], the inhibition at 5 µg/mL came out at 109%.
Take `Cc1cc(C)c(O)c(C(CC(C)CC(C)(C)C)c2cc(C)cc(C)c2O)c1` (stereo not shown) [Compound 51853, bis-1,1-[2-hydroxy-3,5-dimethylphenyl]-3,5,5-dimethyl hexan]: the “inhibition of IFN-γ secretion versus cell proliferation (in words)” value in experiment [1] was “more potent inhibitors of secretion at concentrations that do not effect cell proliferation”. In experiment [2], the inhibition at 5 µg/mL was determined as 104%.
